Like-named read-outs stand apart in the source and are kept apart here.
Molecular target: human NAMPT (Homo sapiens, UniProt P43490)
Test: Human recombinant enzyme assay (NMN fluorescence biochemical assay, activation of NAMPT)
Method in brief: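 NMN production is detected fluorometrically (Ex 355/Em 460 nm) 40 min after acetophenone, KOH and formic acid derivatization. Reactions ran 60 min at ambient temperature: 6 nM human NAMPT, nicotinamide 150 μM, PRPP 20 μM, ATP 2.5 mM, buffered at pH 7.2 with 50 mM HEPES plus DTT, CHAPS, NaCl and 100 mM MgCl2.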

[1] = Table A, human recombinant NAMPT, NMN formation, 60 min
[2] = Table A, human recombinant NAMPT, NMN formation, 60 min, read-out: EC50 Human

Sequence of human NAMPT (P43490 whole entry): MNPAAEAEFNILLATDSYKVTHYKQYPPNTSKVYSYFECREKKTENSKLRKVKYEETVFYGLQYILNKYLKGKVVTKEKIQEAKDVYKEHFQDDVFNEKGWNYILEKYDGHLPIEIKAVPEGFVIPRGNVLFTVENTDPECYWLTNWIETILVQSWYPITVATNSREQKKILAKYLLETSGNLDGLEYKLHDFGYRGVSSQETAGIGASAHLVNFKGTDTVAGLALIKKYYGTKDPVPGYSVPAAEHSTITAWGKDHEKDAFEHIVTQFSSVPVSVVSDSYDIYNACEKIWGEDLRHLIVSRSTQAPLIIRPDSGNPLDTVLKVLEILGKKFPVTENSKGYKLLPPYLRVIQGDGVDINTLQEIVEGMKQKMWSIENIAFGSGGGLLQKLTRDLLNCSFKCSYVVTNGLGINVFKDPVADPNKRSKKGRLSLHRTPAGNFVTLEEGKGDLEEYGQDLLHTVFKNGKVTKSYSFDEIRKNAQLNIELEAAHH

Compound | AC1.4 Human [1] [µM] | EC50 [2] [µM] | EC50 [µM]
Cc1ccc(C(=O)NC2CC3(CC(NC(=O)NCc4ccc(Cl)cc4)C3)C2)cn1 (centres unmarked) [Compound 192, N-(6-(3-(4-chlorobenzyl)ureido)spiro[3.3]heptan-2-yl)-6-methylnicotinamide] | 12.1 | 52.8 | –
Cc1ccccc1C(=O)NC1CC2(CC(NC(=O)NCc3ccc(Cl)cc3)C2)C1 (centres unmarked) [Compound 193, N-(6-(3-(4-chlorobenzyl)ureido)spiro[3.3]heptan-2-yl)-2-methylbenzamide] | 3.6 | 14.6 | –
COc1cccc(C(=O)NC2CC3(CC(NC(=O)NCc4ccc(Cl)cc4)C3)C2)c1 (centres unmarked) [Compound 194, N-(6-(3-(4-chlorobenzyl)ureido)spiro[3.3]heptan-2-yl)-3-methoxybenzamide] | 8.8 | 5.9 | –
CS(=O)(=O)c1cccc(C(=O)NC2CC3(CC(NC(=O)NCc4ccc(Cl)cc4)C3)C2)c1 (centres unmarked) [Compound 195, N-(6-(3-(4-chlorobenzyl)ureido)spiro[3.3]heptan-2-yl)-3-(methylsulfonyl)benzamide] | 17.1 | 23.5 | –
CC(C)(C)OC(=O)N1CC2(CC(NC(=O)NCc3ccc(Cl)cc3)C2)C1 [Compound 197, tert-butyl 6-(3-(4-chlorobenzyl)ureido)-2-azaspiro[3.3]heptane-2-carboxylate] | 3.7 | 13.5 | –
O=C(NCc1ccc(Cl)cc1)NC1CC2(C1)CC(NC(=O)c1cccc(O)c1)C2 (centres unmarked) [Compound 200, N-(6-(3-(4-chlorobenzyl)ureido)spiro[3.3]heptan-2-yl)-3-hydroxybenzamide] | 17.1 | 18.2 | –
Cc1cnccc1C(=O)NC1CC2(CC(NC(=O)NCc3ccc(Cl)cc3)C2)C1 (centres unmarked) [Compound 204, N-(6-(3-(4-chlorobenzyl)ureido)spiro[3.3]heptan-2-yl)-3-methylisonicotinamide] | 13.6 | 26.8 | –
Cc1ccncc1C(=O)NC1CC2(CC(NC(=O)NCc3ccc(Cl)cc3)C2)C1 (centres unmarked) [Compound 205, N-(6-(3-(4-chlorobenzyl)ureido)spiro[3.3]heptan-2-yl)-4-methylnicotinamide] | 10.0 | 23.6 | –
Cc1ccc(C(=O)N2CC3(CC(NC(=O)NCc4ccc(F)cc4)C3)C2)cc1 [Compound 207, 1-(4-fluorobenzyl)-3-(2-(4-methylbenzoyl)-2-azaspiro[3.3]heptan-6-yl)urea] | 13.7 | 6.6 | –
O=C(NCc1ccc(Cl)cc1)NC1CC2(C1)CC(NC(=O)c1ccccc1O)C2 (centres unmarked) [Compound 208, N-(6-(3-(4-chlorobenzyl)ureido)spiro[3.3]heptan-2-yl)-2-hydroxybenzamide] | 9.6 | 11.8 | –
CN(C)c1ccccc1C(=O)NC1CC2(CC(NC(=O)NCc3ccc(Cl)cc3)C2)C1 (centres unmarked) [Compound 209, N-(6-(3-(4-chlorobenzyl)ureido)spiro[3.3]heptan-2-yl)-2-(dimethylamino)benzamide] | 10.6 | 38.5 | –
O=C(NCc1ccc(Cl)cc1)NC1CC2(C1)CC(NS(=O)(=O)c1cccnc1)C2 (centres unmarked) [Compound 213, N-(6-(3-(4-chlorobenzyl)ureido)spiro[3.3]heptan-2-yl)pyridine-3-sulfonamide] | 6.8 | 6.8 | –
Cc1ccc(C(=O)N2CC3(CC(NC(=O)NCc4ccc(C(N)=O)nc4)C3)C2)cc1 [Compound 215, 5-((3-(2-(4-methylbenzoyl)-2-azaspiro[3.3]heptan-6-yl)ureido)methyl)picolinamide] | 3.6 | 30.8 | –
O=C(NCc1ccc(Cl)cc1)NC1CC2(C1)CN(S(=O)(=O)c1ccccc1Cl)C2 [Compound 216, 1-(4-chlorobenzyl)-3-(2-((2-chlorophenyl)sulfonyl)-2-azaspiro[3.3]heptan-6-yl)urea] | 4.9 | 20.9 | –
O=C(NCc1ccc(Cl)cc1)NC1CC2(C1)CN(S(=O)(=O)c1cccc(Cl)c1)C2 [Compound 217, 1-(4-chlorobenzyl)-3-(2-((3-chlorophenyl)sulfonyl)-2-azaspiro[3.3]heptan-6-yl)urea] | 19.2 | 20.1 | –
COc1ccccc1S(=O)(=O)N1CC2(CC(NC(=O)NCc3ccc(Cl)cc3)C2)C1 [Compound 218, 1-(4-chlorobenzyl)-3-(2-((2-methoxyphenyl)sulfonyl)-2-azaspiro[3.3]heptan-6-yl)urea] | 13.2 | 22.5 | –
O=C(NCc1ccc(Cl)cc1)NC1CC2(C1)CN(C(=O)c1cccc(-n3cccc3)c1)C2 [Compound 219, 1-(2-(3-(1H-pyrrol-1-yl)benzoyl)-2-azaspiro[3.3]heptan-6-yl)-3-(4-chlorobenzyl)urea] | 2.9 | 5.2 | –

Compound | AC1.4 Human [1] [µM] | EC50 [2] [µM] | EC50 [µM]
CC(C)c1cccc(C(=O)N2CC3(CC(NC(=O)NCc4ccc(Cl)cc4)C3)C2)c1 [Compound 220, 1-(4-chlorobenzyl)-3-(2-(3-isopropylbenzoyl)-2-azaspiro[3.3]heptan-6-yl)urea] | 3.6 | 4.7 | –
CC(C)(C(=O)N1CC2(CC(NC(=O)NCc3ccc(Cl)cc3)C2)C1)c1ccccc1 [Compound 221, 1-(4-chlorobenzyl)-3-(2-(2-methyl-2-phenylpropanoyl)-2-azaspiro[3.3]heptan-6-yl)urea] | 1.1 | – | 4.6
NC(=O)c1ccc(CNC(=O)NC2CC3(C2)CN(C(=O)c2cccc(N4CCCC4)c2)C3)cc1 [Compound 222, 4-((3-(2-(3-(pyrrolidin-1-yl)benzoyl)-2-azaspiro[3.3]heptan-6-yl)ureido)methyl)benzamide] | 0.2 | 28.6 | –
NC(=O)c1ccc(CNC(=O)NC2CC3(C2)CN(C(=O)c2cncc(N4CCCC4)c2)C3)cc1 [Compound 223, 4-((3-(2-(5-(pyrrolidin-1-yl)nicotinoyl)-2-azaspiro[3.3]heptan-6-yl)ureido)methyl)benzamide] | 0.2 | 38.5 | –
NC(=O)c1ccc(CNC(=O)NC2CC3(C2)CN(C(=O)c2ccc(Cl)cc2)C3)cc1 [Compound 224, 4-((3-(2-(4-chlorobenzoyl)-2-azaspiro[3.3]heptan-6-yl)ureido)methyl)benzamide] | 0.6 | 47.5 | –
Cc1ccc(C(=O)N2CC3(CC(NC(=O)NCc4ccc(C(N)=O)cc4)C3)C2)cn1 [Compound 225, 4-((3-(2-(6-methylnicotinoyl)-2-azaspiro[3.3]heptan-6-yl)ureido)methyl)benzamide] | 2.0 | 50.8 | –
Cc1cc(C(=O)N2CC3(CC(NC(=O)NCc4ccc(C(N)=O)cc4)C3)C2)ccn1 [Compound 226, 4-((3-(2-(2-methylisonicotinoyl)-2-azaspiro[3.3]heptan-6-yl)ureido)methyl)benzamide] | 2.9 | 31.4 | –
Cc1ccc(C(=O)N2CC3(CC(NC(=O)NCc4cn[nH]c4)C3)C2)cc1 [Compound 227, 1-((1H-pyrazol-4-yl)methyl)-3-(2-(4-methylbenzoyl)-2-azaspiro[3.3]heptan-6-yl)urea] | 2.0 | 33.8 | –
Cc1ccc(C(=O)N2CC3(CC(NC(=O)NCc4cocn4)C3)C2)cc1 [Compound 228, 1-(2-(4-methylbenzoyl)-2-azaspiro[3.3]heptan-6-yl)-3-(oxazol-4-ylmethyl)urea] | 1.9 | 39.2 | –
COc1ccc(CNC(=O)NC2CC3(C2)CC(C(=O)N2CCN(C)CC2)C3)cc1 (centres unmarked) [Compound 230, 1-(4-methoxybenzyl)-3-(6-(4-methylpiperazine-1-carbonyl)spiro[3.3]heptan-2-yl)urea] | 1.8 | 30.9 | –
COC(=O)N1CCN(C(=O)C2CC3(CC(NC(=O)NCc4ccc(OC)cc4)C3)C2)CC1 (centres unmarked) [Compound 231, methyl 4-(6-(3-(4-methoxybenzyl)ureido)spiro[3.3]heptane-2-carbonyl)piperazine-1-carboxylate] | 0.5 | – | 7.8
COc1ccc(CNC(=O)NC2CC3(C2)CC(C(=O)N2CCS(=O)(=O)CC2)C3)cc1 (centres unmarked) [Compound 232, 1-(6-(1,1-dioxoidothiomorpholine-4-carbonyl)spiro[3.3]heptan-2-yl)-3-(4-methoxybenzyl)urea] | 3.6 | 37.8 | –
COC(=O)N1CCN(C(=O)C2CC3(CC(NC(=O)NCc4ccc(Cl)cc4)C3)C2)CC1 (centres unmarked) [Compound 233, Methyl 4-(6-(3-(4-chlorobenzyl)ureido)spiro[3.3]heptane-2-carbonyl)piperazine-1-carboxylate] | 0.9 | 1 | –
CC(C)(O)CN1CCN(C(=O)CC2CC3(C2)CC(NC(=O)NCc2ccc(Cl)cc2)C3)CC1 (centres unmarked) [Compound 234, 1-(4-chlorobenzyl)-3-(6-(2-(4-(2-hydoxy-2-methylpropyl)piperazin-1-yl)-2-oxoethyl)spiro[3.3]heptan-2-yl)urea] | 3.7 | 8.6 | –
O=C(NCc1ccc(Cl)cc1)NC1CC2(CC(CC(=O)N3CCC[C@H]3CO)C2)C1 (stereo partly drawn) [Compound 235, (S)-1-(4-chlorobenzyl)-3-(6-(2-(2-(hydroxymethyl)pyrrolidin-1-yl)-2-oxoethyl)spiro[3.3]heptan-2-yl)urea] | 4.1 | 7.5 | –
O=C(NCc1ccc(Cl)cc1)NC1CC2(CC(CC(=O)N3CCCC3)C2)C1 (centres unmarked) [Compound 236, 1-(4-chlorobenzyl)-3-(6-(2-oxo-2-(pyrrolidin-1-yl)ethyl)spiro[3.3]heptan-2-yl)urea] | 3.6 | 5.7 | –
CC(C(=O)N(C)Cc1ccccc1)C1CC2(CC(NC(=O)NCc3ccc(Cl)cc3)C2)C1 (centres unmarked) [Compound 237, N-benzyl-2-(6-(3-(4-chlorobenzyl)ureido)spiro[3.3]heptan-2-yl)-N-methylpropanamide] | 2.4 | 2.6 | –

From patent US20230348369A1 (Cytokinetics, Inc., priority 2020, published 2023)
